From US9643971B2 (GALLEON PHARMACEUTICALS, INC., priority 2013, dated 2017)
Structures can show the parent of a compound that is named as a salt.

Tested on: anesthetized rat
Experiment: Anesthetized rat spirometry screening assay
Assay type: in vivo
Details: for AUC MV Inc (2 min) (ratio vs. std*): 2 minute AUC of minute volume increase vs. comparator N-[2,6-di-(n-propylamino)-[1,3]pyrimidin-4-yl]-N,O-dimethyl-hydroxylamine; for VE Peak (% Inc.): peak minute ventilation increase, urethane-anesthetized rat, i.v. bolus, screening doses 0.1 and 0.3 mg/kg
Description: Effect of Compounds of the Invention on Respiratory Rate (RR), Tidal Volume (VT), and the Product Minute Volume Using an Anesthetized Rat Spirometry Screening Assay
Anesthetized rats provide a quick method of screening compounds for respiratory and cardiovascular activity. In contrast to the conscious rat model, this model offers an experimental set up with less variation in the baseline cardiovascular and respiratory measures. Compounds screened in this assay may be examined in a conscious rat model.
Rats were initially anesthetized with 3% isoflurane (inhaled) and femoral artery and vein cannulas were surgically inserted. Once cannulated, the rats were transitioned to urethane anesthesia (1.5 g/kg; i.v.) and a tracheal cut-down was performed. After placing the tracheal cannula, it was connected to a pneumotachometer to record respiratory airflow from which respiratory rate (RR), tidal volume (VT), and their product minute volume were derived. After the surgical preparation was complete, animals were allowed to stabilize for 30 minutes while respiratory rate, tidal volume, minute volume, blood pressure and heart rate were recorded continuously. Arterial blood gases (ABG) were obtained from arterial blood collected from the femoral artery. ABG measurements were taken before and 6 minutes after vehicle and each dose of compound administered. Compounds being screened were administered via bolus injections through the venous cannula followed by a saline flush (total time of administration is approximately 30 seconds), and the animal was monitored for at least 6 minutes for changes in cardiovascular efforts. Compounds were prepared in formulations identified to ensure optimal solubility. As such, vehicle controls were matched for the formulation of each compound tested. Dosing of the compound being screened was 0.1 and 0.3 mg/kg. The next dose was not administered until all cardiovascular and respiratory measures had returned to baseline levels. The positive control compounds used were N-[4,6-di-(n-propylamino)-[1,3,5]triazin-2-yl]-N,O-dimethyl-hydroxylamine or N-[2,6-di-(n-propylamino)-[1,3]pyrimidin-4-yl]-N,O-dimethyl-hydroxylamine (both administered at the end of each screening experiment (0.3 mg/kg dose) to validate the experiment and also to serve as a measure with which the compound being screened could be compared.
Data were analyzed by collecting cardiovascular and respiratory data in 30 second averages (BINs). Data were plotted 2 minutes before challenge and then 6 minutes after challenge.

Question: How did the “AUC MV Inc (2 min) (ratio vs. std*)” value turn out when `CCNc1nc(NCC2CC2)c2nc(N(CC)CC)nc(NCC3CC3)c2n1.Cl` [Compound 135a, N^2,N^2,N^6-Triethyl-N^4,N^8-bis-cyclopropylmethyl-pyrimido[5,4-d]pyrimidine-2,4,6,8-tetraamine hydrochloride] was run?
Answer: 0.00 ratio vs. std

Question: `CCCNc1nc(NC)c2ncnc(NC)c2n1` [Compound 116a, N^4,N^8-Dimethyl-N^2-n-propyl-pyrimido[5,4-d]pyrimidine-2,4,8-triamine] was tested. Which “AUC MV Inc (2 min) (ratio vs. std*)” value did it give?
Answer: 0.00 ratio vs. std

Question: With `CCCNc1nc(NC)c2nc(C#N)nc(NC)c2n1` [Compound 103a, 4,8-Bis-methylamino-6-n-propylamino-pyrimido[5,4-d]pyrimidine-2-carbonitrile] as the compound, how does the “AUC MV Inc (2 min) (ratio vs. std*)” value read?
Answer: 0.00 ratio vs. std

Question: For `CCCNc1nc(NC)c2nc(N3CCS(=O)(=O)CC3)nc(NC)c2n1.Cl` [Compound 75a, N^2-6-n-Propylamino-N^4,N^8-dimethyl-2-(1,1-dioxo-thiomorpholin-4-yl)-pyrimido-[5,4-d]pyrimidine-2,4,8-triamine hydrochloride], which “AUC MV Inc (2 min) (ratio vs. std*)” value is on record?
Answer: 0.02 ratio vs. std

Question: What about the “VE Peak (% Inc.)” value of the same compound?
Answer: 2 % Inc.

Question: For `CCNc1nc(NCC)c2nc(NCC)nc(NCC)c2n1.Cl` [Compound 125a, N^2,N^4,N^6,N^8-Tetraethyl-pyrimido[5,4-d]pyrimidine-2,4,6,8-tetraamine hydrochloride], which “AUC MV Inc (2 min) (ratio vs. std*)” value is on record?
Answer: 0.80 ratio vs. std

Question: For `CCCNc1nc(NC)c2nc(OCCC)nc(NC)c2n1` [Compound 95a, N^4,N^8-Dimethyl-6-propoxy-N^2-n-propyl-pyrimido[5,4-d]pyrimidine-2,4,8-triamine], which “AUC MV Inc (2 min) (ratio vs. std*)” value is on record?
Answer: 0.36 ratio vs. std

Question: How did the “AUC MV Inc (2 min) (ratio vs. std*)” value turn out when `C=CCNc1nc(NC)c2nc(NCC=C)nc(NC)c2n1.Cl` [Compound 89a, N^2,N^6-Diallyl-N^4,N^8-dimethyl-pyrimido[5,4-d]pyrimidine-2,4,6,8-tetraamine hydrochloride] was run?
Answer: 0.92 ratio vs. std

Question: With `C=CCNc1nc(NCC=C)c2nc(N3CCN(C(c4ccc(F)cc4)c4ccc(F)cc4)CC3)nc(NCC=C)c2n1` [Compound 150a, N^2,N^4,N^8-Triallyl-6-{4-[bis-(4-fluorophenyl)-methyl]-piperazin-1-yl}-pyrimido[5,4-d]pyrimidine-2,4,8-triamine] as the compound, how does the “AUC MV Inc (2 min) (ratio vs. std*)” value read?
Answer: 0.00 ratio vs. std

Question: For `CCCN(C)c1nc(N)c2nc(N(C)C)nc(NC)c2n1.Cl` [Compound 56a, N^2,N^2,N^4,N^6-Tetramethyl-N^6-n-propyl-pyrimido[5,4-d]pyrimidine-2,4,6,8-tetraamine hydrochloride], which “AUC MV Inc (2 min) (ratio vs. std*)” value is on record?
Answer: 0.79 ratio vs. std

Question: For `CCCNc1nc(N(CC)CC)nc2c(NCCC)nc(NCC)nc12` [Compound 152a, N^2,N^2,N^6-Triethyl-N^4,N^8-di-n-propyl-pyrimido[5,4-d]pyrimidine-2,4,6,8-tetraamine], which “AUC MV Inc (2 min) (ratio vs. std*)” value is on record?
Answer: 0.00 ratio vs. std

Question: With `CCCNc1nc(NC)c2nc(N(CCO)CCO)nc(NC)c2n1.Cl` [Compound 66a, 2-[(4,8-Bis-methylamino-6-n-propylamino-pyrimido[5,4-d]pyrimidin-2-yl)-(2-hydroxy-ethyl)-amino]-ethanol hydrochloride] as the compound, how does the “AUC MV Inc (2 min) (ratio vs. std*)” value read?
Answer: 0.14 ratio vs. std

Question: How did the “AUC MV Inc (2 min) (ratio vs. std*)” value turn out when `C=CCN(CC=C)c1nc(NC)c2nc(NCCC)nc(NC)c2n1` [Compound 58a, N^2,N^2-Diallyl-N^4,N^8-dimethyl-N^6-n-propyl-pyrimido[5,4-d]pyrimidine-2,4,6,8-tetraamine] was run?
Answer: 0.18 ratio vs. std

Question: How did the “AUC MV Inc (2 min) (ratio vs. std*)” value turn out when `CCCNc1nc(NC)c2nc(SCCC)nc(NC)c2n1` [Compound 97a, N^4,N^8-Dimethyl-N^2-n-propyl-6-propylsulfanyl-pyrimido[5,4-d]pyrimidine-2,4,8-triamine] was run?
Answer: 0.26 ratio vs. std

Question: For `CCCNc1nc(NC)c2nc(N(C)CCN(C)C)nc(NC)c2n1` [Compound 64a, 2-[N-(2-Dimethylamino-ethyl)-N-methyl]amino-N^4,N^8-dimethyl-N^6-n-propyl-pyrimido[5,4-d]pyrimidine-4,6,8-triamine], which “AUC MV Inc (2 min) (ratio vs. std*)” value is on record?
Answer: 0.01 ratio vs. std

Question: What about the “VE Peak (% Inc.)” value of the same compound?
Answer: 9 % Inc.

Question: How did the “AUC MV Inc (2 min) (ratio vs. std*)” value turn out when `CCCNc1nc(NC)nc2c(NCCC)nc(C#N)nc12` [Compound 122a, 6-Methylamino-4,8-bis-n-propylamino-pyrimido[5,4-d]pyrimidine-2-carbonitrile] was run?
Answer: 0.00 ratio vs. std

Question: Which “AUC MV Inc (2 min) (ratio vs. std*)” value does the source give for `CCCNc1nc(NC)c2nc(CN)nc(NC)c2n1` [Compound 105a, N^4,N^8-Dimethyl-N^2-n-propyl-6-(aminomethyl)-pyrimido[5,4-d]pyrimidine-2,4,8-triamine] here?
Answer: 0.00 ratio vs. std

Question: Which “AUC MV Inc (2 min) (ratio vs. std*)” value does the source give for `CCCNc1nc(NC)c2nc(O)nc(NC)c2n1` [Compound 101, 4,8-Bis-methylamino-6-propylamino-pyrimido[5,4-d]pyrimidin-2-ol] here?
Answer: 0.00 ratio vs. std

Question: How did the “AUC MV Inc (2 min) (ratio vs. std*)” value turn out when `CCCNc1nc(NCC)c2nc(NCCC)nc(NCC)c2n1` [Compound 127a, N^4,N^8-Diethyl-N^2,N^6-di-n-propyl-pyrimido[5,4-d]pyrimidine-2,4,6,8-tetraamine] was run?
Answer: 0.86 ratio vs. std

Question: How did the “AUC MV Inc (2 min) (ratio vs. std*)” value turn out when `CCNc1nc(NCC2CC2)nc2c(NCC)nc(NCC3CC3)nc12` [Compound 129a, N^2,N^6-Bis-cyclopropylmethyl-N^4,N^8-diethyl-pyrimido[5,4-d]pyrimidine-2,4,6,8-tetraamine] was run?
Answer: 0.25 ratio vs. std

Question: How did the “AUC MV Inc (2 min) (ratio vs. std*)” value turn out when `CCCNC(=O)CNc1nc(NC)c2nc(NCCC)nc(NC)c2n1.Cl` [Compound 157a, N-n-Propyl-[2-(4,8-bis-methylamino-6-propylamino-pyrimido[5,4-d]pyrimidin-2-ylamino)]-acetamide hydrochloride] was run?
Answer: 0.04 ratio vs. std

Question: Which results are given for `CCCN=C(N)c1nc(NC)c2nc(NCCC)nc(NC)c2n1` [Compound 110a, N-(n-Propyl)-[4,8-Bis-methylamino-6-n-propylamino-pyrimido[5,4-d]pyrimidin-2-yl]-amidine]?
Answer: AUC MV Inc (2 min) (ratio vs. std*): 0.00 ratio vs. std; VE Peak (% Inc.): 0 % Inc.

Question: How did the “AUC MV Inc (2 min) (ratio vs. std*)” value turn out when `CNc1nc(NCC(C)C)nc2c(NC)nc(NCC(C)C)nc12.Cl` [Compound 87a, N^2,N^6-Diisobutyl-N^4,N^8-dimethyl-pyrimido[5,4-d]pyrimidine-2,4,6,8-tetraamine hydrochloride] was run?
Answer: 0.18 ratio vs. std

Question: How did the “AUC MV Inc (2 min) (ratio vs. std*)” value turn out when `CCCNc1nc(NC)c2nc(N(CCOC)CCOC)nc(NC)c2n1` [Compound 68a, N^2,N^2-Bis-(2-methoxyethyl)-N^4,N^8-dimethyl-N^6-n-propyl-pyrimido[5,4-d]pyrimidine-2,4,6,8-tetraamine] was run?
Answer: 0.00 ratio vs. std

Question: Which “AUC MV Inc (2 min) (ratio vs. std*)” value does the source give for `CCCNc1nc(NC)c2nc(NCC(=O)O)nc(NC)c2n1` [Compound 154, (4,8-bis-methylamino-6-n-propylamino-pyrimido[5,4-d]pyrimidin-2-ylamino)-acetic acid] here?
Answer: 0.00 ratio vs. std

Question: For `CCCNc1nc(NC)c2nc(NCCOC(C)C)nc(NC)c2n1` [Compound 62a, N^2-(2-Isopropoxy-ethyl)-N^4,N^8-dimethyl-N^6-n-propyl-pyrimido[5,4-d]pyrimidine-2,4,6,8-tetraamine], which “AUC MV Inc (2 min) (ratio vs. std*)” value is on record?
Answer: 0.55 ratio vs. std

Question: Which “AUC MV Inc (2 min) (ratio vs. std*)” value does the source give for `CCCNc1nc(NC)c2nc(C(N)=O)nc(NC)c2n1` [Compound 107a, 6-Carbamoyl-N^4,N^8-dimethyl-N^2-n-propyl-pyrimido[5,4-d]pyrimidine-2,4,8-triamine] here?
Answer: 0.00 ratio vs. std

Question: `CCCNc1nc(NC)c2nc(N3CCC(F)(F)CC3)nc(NC)c2n1` [Compound 77a, N^2-n-Propyl-N^4,N^8-dimethyl-6-(4,4-difluoro-piperidin-1-yl)-pyrimido[5,4-d]pyrimidine-2,4,8-triamine hydrochloride] was tested. Which “AUC MV Inc (2 min) (ratio vs. std*)” value did it give?
Answer: 0.55 ratio vs. std

Question: `CCCNc1nc(N(C)C)nc2c(NCCC)nc(N(C)C)nc12` [Compound 142a, N^2,N^2,N^6,N^6-Tetramethyl-N^4,N^8-di-n-propyl-pyrimido[5,4-d]pyrimidine-2,4,6,8-tetraamine] was tested. Which “AUC MV Inc (2 min) (ratio vs. std*)” value did it give?
Answer: 0.05 ratio vs. std

Question: How did the “AUC MV Inc (2 min) (ratio vs. std*)” value turn out when `CCCNc1nc(NC)c2nc(OCc3ccccc3)nc(NC)c2n1` [Compound 99a, 6-Benzyloxy-N^4,N^8-Dimethyl-N^2-n-propyl-pyrimido[5,4-d]pyrimidine-2,4,8-triamine] was run?
Answer: 0.19 ratio vs. std

Question: For `C=CCNc1nc(NCC=C)c2nc(N3CCN(Cc4ccc(F)cc4)CC3)nc(NCC=C)c2n1.Cl.Cl` [Compound 148a, N^2,N^4,N^8-Triallyl-6-[4-(4-fluorobenzyl)-piperazin-1-yl]-pyrimido[5,4-d]pyrimidine-2,4,8-triamine dihydrochloride], which “AUC MV Inc (2 min) (ratio vs. std*)” value is on record?
Answer: 0.00 ratio vs. std
